The structures appear in SMILES notation. Activity calls are given as the source filed them. No cut-off for these calls is given here.

The target in data set [1] is G-protein coupled receptor 52 (Mus musculus, UniProt P0C5J4). Kind of data set: In-vivo antagonist activity at GPR52 in HdhQ140 mouse model with GPR52 knockdown assessed as decrease in mHTT levels. It is filed as functional.
The species entered for data set [2] is Mus musculus. Kind of data set: Neuroprotective activity in primary striatal neurons from HdhQ140 mouse assessed as rescue of mHTT-induced neuronal survival loss. The following applies: Neuron. It is filed as functional, organism-based.
Data set [3] in a line: Neuroprotective activity in HdhQ140 mouse model assessed as alleviation of motor deficiency at 5 mg/kg, iv. It is filed as organism-based. The settings on record: in vivo.
Data set [4] concerns Mus musculus. As to the kind of experiment: Neuroprotective activity in primary striatal neurons from HdhQ140 mouse assessed as rescue of mHTT-induced neuronal survival loss at 5 mg/kg, iv. It is filed as functional, organism-based.
Data set [5] has as its system Mus musculus. Kind of data set: Neuroprotective activity in HdhQ140 mouse assessed as decrease in staining intensity of microglia at 5 mg/kg, iv by Iba1staining based analysis. Type of data set: functional, organism-based.
The nature of data set [6]: Drug uptake in mouse brain at 5 mg/kg, iv. It is filed as ADME, organism-based. The settings on record: in vivo, read-out: Drug uptake.
Data set [7] concerns Mus musculus. Kind of data set: Neuroprotective activity in HdhQ140 mouse assessed as decrease in staining intensity of microglia at 0.5 mM, icv by Iba1staining based analysis. It is filed as functional, organism-based.

Chain of G-protein coupled receptor 52 (P0C5J4 whole entry): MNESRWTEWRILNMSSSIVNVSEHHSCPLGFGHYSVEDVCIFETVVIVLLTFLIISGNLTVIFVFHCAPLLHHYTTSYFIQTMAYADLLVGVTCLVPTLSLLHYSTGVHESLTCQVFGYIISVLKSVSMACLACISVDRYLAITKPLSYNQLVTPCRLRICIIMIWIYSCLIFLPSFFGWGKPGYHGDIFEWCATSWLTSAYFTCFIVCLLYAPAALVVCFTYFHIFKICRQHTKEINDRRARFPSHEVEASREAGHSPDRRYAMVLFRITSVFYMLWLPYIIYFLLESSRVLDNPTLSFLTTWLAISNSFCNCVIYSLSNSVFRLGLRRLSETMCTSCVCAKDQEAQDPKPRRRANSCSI

As a reminder, the IC50 is the concentration needed to halve the response being measured. On to `O=C(/C=C/CCc1ccccc1)CCc1ccccc1`, for which, in data set [1], the IC50 came out at 6 µM.

Take `O=C(/C=C/CCc1ccccc1)c1cccs1`: the result in the data set filed under Mus musculus [2], in the data set on Mus musculus [4], in the data set on Mus musculus [5] and in the data set with Mus musculus [7] was Active. In addition, the Activity result in data set [3] is given as “Toxic”. In data set [6], the concentration came to 20 nM.

The values are drawn from ChEMBL document CHEMBL4732142, “Discovery of the First Druggable GPR52 Antagonist to Treat Huntington's Disease” (J Med Chem, 2021).
